Source: PMC12935787, “Clinical pharmacokinetics and pharmacometabolomics of Andrographis paniculata capsules: Bridging drug disposition and metabolic response to precision medicine” (Naunyn-Schmiedeberg's Archives of Pharmacology, 2025)
Like-named read-outs stand apart in the source and are kept apart here.

Experiment: Clinical pharmacokinetics, plasma LC-MS/MS after single oral dose of AP capsules
Format: in vivo, human (healthy volunteers)
Details: human, plasma; for concentration at 0 h / concentration at 0.5 h / concentration at 1 h / concentration at 1.5 h / concentration at 2 h / concentration at 2.5 h / concentration at 3 h / concentration at 3.5 h / concentration at 4 h / concentration at 5 h / concentration at 6 h / concentration at 8 h / concentration at 10 h / concentration at 12 h / concentration at 24 h: oral, 2000 mg, 2000 mg AP capsules; for concentration at 0.5 h: 0.50 h; for concentration at 1.5 h: 1.50 h; for concentration at 2.5 h: 2.50 h; for concentration at 3.5 h: 3.50 h
Procedure: The protocol was published (Tee et al. [2022]).
Seven calibrators ranging from 1, 2, 5,10, 20, 50, and 100 ng mL^−1 were prepared. Frozen plasma was thawed, vortexed-mixes, and processed via protein precipitation: 50 µL plasma plus 100 µL 0.01% ammonia in methanol were vortexed (20 s), centrifuged (14800 rpm, 5 min) and […] supernatant was transferred to 2 mL vials with inserts. LC–MS/MS injection volume: 10 µL. The separation used a Phenomenex Gemini-NX C18 column (150 × 2.1 mm, 5 μm) with 0.01% ammonia (A) and acetonitrile/methanol (1:1, B) as mobile phases (0.30 mL min^-1). The gradient program: 40% B (0 min), linear increase to 95% B (3 min), hold to 5 min, sharp decrease to 10% B (5.01 min), hold to 7 min, return to 40% B (7.01 min), and re-equilibration to 10 min. Mass detection employed an LCMS-8060NX triple quadrupole with heated ESI in negative mode, monitoring specific MRM transitions: andrographolide (349.3 → 331.2/287.1), 14-deoxyandrographolide (331.2 → 108.0/301.1), and neoandrographolide (479.1 → 317.4/161.1).
Pharmacokinetic parameters were determined from plasma samples (5 subjects, 15 time points) analyzed via LC–MS/MS (Shimadzu 8060NX). […] Specific MRM transitions for andrographolide, 14-deoxyandrographolide, and neoandrographolide in plasma samples of subjects are illustrated in Figure S3. […] The dose-dependent concentration–time curves, pharmacokinetics profiles (Fig. 2a, b and c) and comprehensive individual PK data (Table S4) provide a foundation for developing personalized AP dosing regimens, supporting its precision medicine potential.

[1] = S1, read-out: Plasma concentration
[2] = S2, read-out: Plasma concentration
[3] = S3, read-out: Plasma concentration
[4] = S4, read-out: Plasma concentration
[5] = S5, read-out: Plasma concentration
[6] = mean n=5, read-out: Mean concentration
[7] = 2000 mg AP capsules oral, fasting, n=5

Question: What does the source list for `C=C1CC[C@@H]2[C@](C)(CO[C@@H]3O[C@H](CO)[C@@H](O)[C@H](O)[C@H]3O)CCC[C@@]2(C)[C@@H]1CCC1=CCOC1=O` [neoandrographolide]?
Answer: concentration at 0 h [1]: 0 ng/mL; concentration at 0.5 h [1]: 13.2 ng/mL; concentration at 1 h [1]: 21.3 ng/mL; concentration at 1.5 h [1]: 41.4 ng/mL; concentration at 2 h [1]: 32 ng/mL; concentration at 2.5 h [1]: 19.7 ng/mL; concentration at 3 h [1]: 24.1 ng/mL; concentration at 3.5 h [1]: 22.2 ng/mL; concentration at 4 h [1]: 6.67 ng/mL; concentration at 5 h [1]: 11.3 ng/mL; concentration at 6 h [1]: 4.57 ng/mL; concentration at 8 h [1]: 0.97 ng/mL; concentration at 10 h [1]: 0 ng/mL; concentration at 12 h [1]: 0 ng/mL; concentration at 24 h [1]: 0 ng/mL; concentration at 0 h [2]: 0 ng/mL; concentration at 0.5 h [2]: 0.77 ng/mL; concentration at 1 h [2]: 45.3 ng/mL; concentration at 1.5 h [2]: 43.7 ng/mL; concentration at 2 h [2]: 28 ng/mL; concentration at 2.5 h [2]: 21.7 ng/mL; concentration at 3 h [2]: 36.5 ng/mL; concentration at 3.5 h [2]: 15.1 ng/mL; concentration at 4 h [2]: 12.8 ng/mL; concentration at 5 h [2]: 16.2 ng/mL; concentration at 6 h [2]: 5.29 ng/mL; concentration at 8 h [2]: 1.69 ng/mL; concentration at 10 h [2]: 0 ng/mL; concentration at 12 h [2]: 0 ng/mL; concentration at 24 h [2]: 0 ng/mL; concentration at 0 h [3]: 0 ng/mL; concentration at 0.5 h [3]: 82.9 ng/mL; concentration at 1 h [3]: 75.6 ng/mL; concentration at 1.5 h [3]: 50 ng/mL; concentration at 2 h [3]: 24.3 ng/mL; concentration at 2.5 h [3]: 13.1 ng/mL; concentration at 3 h [3]: 7.05 ng/mL; concentration at 3.5 h [3]: 0 ng/mL; concentration at 4 h [3]: 0 ng/mL; concentration at 5 h [3]: 0 ng/mL; concentration at 6 h [3]: 0 ng/mL; concentration at 8 h [3]: 0 ng/mL; concentration at 10 h [3]: 0 ng/mL; concentration at 12 h [3]: 0 ng/mL; concentration at 24 h [3]: 0 ng/mL; concentration at 0 h [4]: 0 ng/mL; concentration at 0.5 h [4]: 1.9 ng/mL; concentration at 1 h [4]: 41.1 ng/mL; concentration at 1.5 h [4]: 109 ng/mL; concentration at 2 h [4]: 78.2 ng/mL; concentration at 2.5 h [4]: 53.9 ng/mL; concentration at 3 h [4]: 43.9 ng/mL; concentration at 3.5 h [4]: 33.5 ng/mL; concentration at 4 h [4]: 21.9 ng/mL; concentration at 5 h [4]: 20.6 ng/mL; concentration at 6 h [4]: 11.9 ng/mL; concentration at 8 h [4]: 2.08 ng/mL; concentration at 10 h [4]: 0 ng/mL; concentration at 12 h [4]: 0 ng/mL; concentration at 24 h [4]: 0 ng/mL; concentration at 0 h [5]: 0 ng/mL; concentration at 0.5 h [5]: 15.4 ng/mL; concentration at 1 h [5]: 27.1 ng/mL; concentration at 1.5 h [5]: 48 ng/mL; concentration at 2 h [5]: 86.8 ng/mL; concentration at 2.5 h [5]: 65.8 ng/mL; concentration at 3 h [5]: 59.5 ng/mL; concentration at 3.5 h [5]: 31.1 ng/mL; concentration at 4 h [5]: 18.5 ng/mL; concentration at 5 h [5]: 9.61 ng/mL; concentration at 6 h [5]: 4.65 ng/mL; concentration at 8 h [5]: 1.35 ng/mL; concentration at 10 h [5]: 0 ng/mL; concentration at 12 h [5]: 0 ng/mL; concentration at 24 h [5]: 0 ng/mL; concentration at 0 h [6]: 0 ng/mL; concentration at 0.5 h [6]: 22.8 ng/mL; concentration at 1 h [6]: 42.1 ng/mL; concentration at 1.5 h [6]: 58.5 ng/mL; concentration at 2 h [6]: 49.9 ng/mL; concentration at 2.5 h [6]: 34.9 ng/mL; concentration at 3 h [6]: 34.2 ng/mL; concentration at 3.5 h [6]: 20.4 ng/mL; concentration at 4 h [6]: 12 ng/mL; concentration at 5 h [6]: 11.5 ng/mL; concentration at 6 h [6]: 5.28 ng/mL; concentration at 8 h [6]: 1.22 ng/mL; concentration at 10 h [6]: 0 ng/mL; concentration at 12 h [6]: 0 ng/mL; concentration at 24 h [6]: 0 ng/mL; AUC(0-inf) [7]: 163 ng·h/mL; AUC(0-t) [7]: 161 ng·h/mL; Cmax [7]: 58.5 ng/mL; half-life [7]: 55.8 min
